Values of other authors as cited in patent publication US20230025663A1, “NANOFORMULATION WITH DIVERSE FUNCTIONAL MOLECULES FROM TURMERIC AND PROCESS FOR PREPARATION OF THE SAME” (ZEROHARM SCIENCES PRIVATE LIMITED, priority 2021, published 2023).

Conditions: in vivo

bioavailability: ~1%
SMILES: COc1cc(/C=C/C(=O)CC(=O)/C=C/c2ccc(O)c(OC)c2)ccc1O [curcumin]
